# In paper PMC9348534 (Advanced Pharmaceutical Bulletin, 2021):
# Like-named read-outs stand apart in the source and are kept apart here.
# Tests used:
# [1] = system: several cancer cell lines; assay: Cytotoxic assay on several cancer cell lines (summary statement); assay type: cell-based; conditions: several cancer cell lines (Table 3)
# Excerpt: (§1) MCF-7/HER2 and MCF-7/EV are HER2 and empty vector-transfected MCF-7 cells obtained from Prof. Yoshio Inouye (Department of Surgery, Toho University School of Medicine, Japan) through Prof. Masashi Kawaichi (Laboratory of Gene Function in Animals, NAIST, Japan). The cells of 4T1, NIH-3T3, and T47D were kindly provided by Prof. Masashi Kawaichi (Laboratory of Gene Function in Animals, NAIST, Japan). K652 cells are the collection from the Laboratory of Tumor Cell Biology, Nara Institute of Science and Technology, Japan. HCC1954 and Caco2 cell lines were given by Dr. dr. Muhammad Hasan Bashari (Faculty of Medicine, Universitas Padjajaran, Indonesia). WiDr cell line was obtained from the Faculty of Medicine, Public Health, and Nursing Universitas Gadjah Mada, Indonesia. […]
# (§2) Cells were grown in 24 or 96-well microplate and then cultured for 24 h. […] After treatment, viable cells were enumerated using the trypan blue exclusion or quantified under MTT assay. […]
# (§3) Molecular docking results were validated by determining the RMSD value of conformation bearing the lowest docking score representing the ∆G (kkal/mol). […] Cytotoxic potencies against several cell lines were statistically analyzed based on the IC50 values through linear regression with a P value of […].
# T47D cells = assay: Cell viability assay (trypan blue exclusion or MTT); assay type: cell-based; conditions: Homo sapiens, 24 hours treatment, read-out: IC 50 value
# Excerpt: (§4) MCF-7/HER2 and MCF-7/EV are HER2 and empty vector-transfected MCF-7 cells obtained from Prof. Yoshio Inouye (Department of Surgery, Toho University School of Medicine, Japan) through Prof. Masashi Kawaichi (Laboratory of Gene Function in Animals, NAIST, Japan). The cells of 4T1, NIH-3T3, and T47D were kindly provided by Prof. Masashi Kawaichi (Laboratory of Gene Function in Animals, NAIST, Japan). K652 cells are the collection from the Laboratory of Tumor Cell Biology, Nara Institute of Science and Technology, Japan. HCC1954 and Caco2 cell lines were given by Dr. dr. Muhammad Hasan Bashari (Faculty of Medicine, Universitas Padjajaran, Indonesia). WiDr cell line was obtained from the Faculty of Medicine, Public Health, and Nursing Universitas Gadjah Mada, Indonesia. Briefly, MCF-7/HER2, MCF-7, NIH-3T3, T47D, MCF-7/EV, and 4T1 cells were cultured in Dulbecco’s Modified Eagles Medium (DMEM) high glucose (Gibco, USA), whereas HCC1954, Caco2, WiDr, K562 cells were grown in Rosewell Park Memorial Institute (RPMI) Medium. Both were supplemented with 10% (v/v) fetal bovine serum (Gibco, USA), HEPES (Sigma, USA), sodium bicarbonate (Sigma, USA), 150 IU/mL penicillin and 150 µg/mL streptomycin (Gibco) and 1.25 µg/mL amphotericin B (Gibco, USA). The cells were maintained at 37 °C with 5% CO2 in a humidified atmosphere.
# (§5) Cells were grown in 24 or 96-well microplate and then cultured for 24 h. Subsequently, cells were treated with PGV-1 or CCA-1.1 at concentration series up to 10 µM, except for NIH-3T3 up to 100 µM and incubated for 24 hours. Untreated cells were used as control. After treatment, viable cells were enumerated using the trypan blue exclusion or quantified under MTT assay. The viable cells were represented as % cell viability vs. concentration of the sample, and the IC50 value or the concentration that inhibits 50% of cell growth was calculated.
# (§6) Molecular docking results were validated by determining the RMSD value of conformation bearing the lowest docking score representing the ∆G (kkal/mol). The validity of the molecular docking method was represented as RMSD value < 2. Cytotoxic potencies against several cell lines were statistically analyzed based on the IC50 values through linear regression with a P value of […].
# Caco2 cells = assay: as above; assay type: cell-based; conditions: Homo sapiens, Caco-2; Caco2, 24 hours treatment; read-out: IC 50 value
# Excerpt: as §4, §5, §6
# 4T1 cells [2] = assay: as above; assay type: cell-based; conditions: Mus musculus; 4T1, 24 hours treatment; read-out: IC 50 value
# Excerpt: as §4, §5, §6
# MCF-7 cells [3] = assay: as above; assay type: cell-based; conditions: Homo sapiens, MCF7; MCF-7, 24 hours treatment; read-out: IC 50 value
# Excerpt: as §4, §5, §6
# WiDr cells = assay: as above; assay type: cell-based; conditions: Homo sapiens, 24 hours treatment, read-out: IC 50 value
# Excerpt: as §4, §5, §6
# HCC1954 cells = assay: as above; assay type: cell-based; conditions: Homo sapiens; HCC1954, 24 hours treatment; read-out: IC 50 value
# Excerpt: as §4, §5, §6
# NIH-3T3 cells = assay: as above; assay type: cell-based; conditions: Mus musculus, NIH3T3; NIH-3T3 (non-cancerous), concentrations up to 100 µM, 24 hours; read-out: IC 50 value
# Excerpt: as §4, §5, §6
# MCF-7/EV cells = assay: as above; assay type: cell-based; conditions: Homo sapiens, MCF7, 24 hours treatment, read-out: IC 50 value
# Excerpt: as §4, §5, §6
# MCF-7/HER2 cells = assay: as above; assay type: cell-based; conditions: Homo sapiens, MCF7; MCF-7/HER2, 24 hours treatment; read-out: IC 50 value
# Excerpt: as §4, §5, §6
# [4] = Dissolution and stability test in buffer solution; assay type: physicochemical; conditions: for Appearance of solution after storage for 48 hours: 100 µM, room temperature; for Absorbance change (stability) up to 3 hours: aqueous solution, light exposure, ambient temperature, especially pH 1.0
# Method: Each solution in the respected buffer was then evaluated for its stability at ambient temperature and light exposure. It measured the absorbance change at 428, 416, and 404 nm, subsequently over a time-course using a UV-1800 spectrophotometer (Shimadzu, Japan).
# K562 cells [5] = assay: Cell viability assay (trypan blue exclusion or MTT); assay type: cell-based, human
# Excerpt: as §1, §2, §3
# 4T1 cells [6] = conditions: read-out: IC 50 value; cited from earlier work
# MCF-7 cells [7] = system: MCF-7 cells; set-up: method as in PMID 31548601; conditions: read-out: IC 50 value; cited from earlier work
# K562 cells [8] = system: K562 cells; set-up: method as in PMID 31619723; conditions: read-out: IC 50 value; cited from earlier work
# [9] = aqueous; cited from earlier work
IC50 (T47D cells) [µM],IC50 (Caco2 cells) [µM],IC50 (HCC1954 cells) [µM],IC50 (MCF-7/EV cells) [µM],IC50 (MCF-7/HER2 cells) [µM],Appearance of solution after storage for 48 hours [4],Compound,IC50 [1] [µM],IC50 (WiDr cells) [µM],IC50 (NIH-3T3 cells) [µM],Absorbance change (stability) up to 3 hours [4],further results
7,5,6,8,5,still looked clear,"Cc1cc(C=C2CCC(=Cc3cc(C)c(O)c(C)c3)C2O)cc(C)c1O (centres unmarked) [CCA-1.1, 2,5-bis(4-hydroxy-3,5-dimethylbenzylidene)cyclopentanol]",< 10,5,> 50,unchanged absorbance up to 3 hours,"IC50 (4T1 cells [2]): 3 µM; IC50 (MCF-7 cells [3]): < 10 µM; Solubility compared at a concentration of 100 µM ([4]; distilled water, buffer pH 1.0 and pH 7.4, 100 µM): more soluble than PGV-1 and curcumin; Solubility relative to PGV-1 ([4]; pH 1.0, 7.4, distilled water, observations up to 48 hours): two times more soluble than PGV-1; IC50 (K562 cells [5]; Homo sapiens, K562, 24 hours treatment, read-out: IC 50 value): 0.293 µM; Cytotoxic potency relative to PGV-1 (K562 cells [5]; K562): twice stronger than PGV-1"
8,12,3,8,7,appeared with some sediment or crystal,"Cc1cc(C=C2CCC(=Cc3cc(C)c(O)c(C)c3)C2=O)cc(C)c1O [PGV-1, 2,5-bis(4-hydroxy-3,5-dimethylbenzylidene)cyclopentanone]",< 10,> 10,> 50,tended to decrease the absorbance at 3 hours,IC50 (4T1 cells [6]): 4 µM; IC50 (MCF-7 cells [7]): 6 µM; IC50 (K562 cells [8]): 0.45 µM; Appearance of solution at 50 µM ([4]; 50 µM (data not shown)): appeared clear
,,,,,,"COc1cc(C=CC(=O)CC(=O)C=Cc2ccc(O)c(OC)c2)ccc1O [curcumin, 1,7-bis(4-hydroxy-3-methoxyphenyl)-1,6-heptadiene-3,5-dione]",,,,tended to decrease the absorbance at 3 hours,Solubility [9]: 40 µM
